The structures appear in SMILES notation. Read-outs that look alike come from different tables or passages of the source. Where only a bound is given, the exact number is not on record here.

What all share (assay type): cell-based, human
In one experiment the test system is HTT mRNA. The experiment is described as follows: Splicing RT-qPCR assay, HTT canonical (CJ) and alternative (AJ) junction mRNA. Conditions: for AC50: alternative junction mRNA, read-out: HTT AJ (AC50, increase in AJ mRNA); for IC50: canonical junction mRNA. Summed up: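 A673 cells (DMEM, 10% FBS) or K562 cells (IMDM, 10% FBS) were treated for 24 h at 37° C with an 11-point 3-fold dilution series, top dose 10 uM, DMSO ≤0.25%. Canonical and alternative junction mRNA was measured in lysates by one-step RT-qPCR. Normalization used PPIA for A673 and GAPDH or GUSB for K562.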
(In qPCR the cycle at which signal appears reflects the starting amount.)

A further experiment has as its system Target C. The experiment is described as follows: HiBiT protein abundance assay, Target C (K562 HiBiT knock-in). The following applies: HiBiT knock-in cells, 24 hours. Summed up:
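K562 HiBiT knock-in cells (10000/well) in IMDM + 1% FBS were treated for 24 h at 37° C. with a 10-point 3-fold dilution series (top 10 μM final), with DMSO ≤0.25%. Unmodified K562 served as baseline. HiBiT lytic luminescence was normalized to controls, and IC50 was interpolated at 50% from a four-parameter fit.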
In general terms: The HiBiT peptide binds its large partner to form an active luciferase.

Another experiment relates to Target C mRNA. Kind of experiment: Splicing RT-qPCR panel, Target C canonical junction (CJ) mRNA. The following applies: read-out: Target C CJ (decrease in CJ mRNA levels, IC50). The procedure, abridged: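 A673 cells (DMEM, 10% FBS) or K562 cells (IMDM, 10% FBS) treated 24 h at 37 °C with an 11-point 3-fold dilution, top 10 uM, DMSO ≤0.25%. Canonical-junction mRNA quantified in lysates by RT-qPCR, normalised to GAPDH, GUSB or PPIA and to DMSO (2^−ΔΔCt), then converted to % response.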

[1] abbreviates: Homo sapiens, 24 h, RT-qPCR, A673 or K562 cells, 24 hours treatment, read-out: HTT CJ (IC50, decrease in CJ mRNA).
[2] abbreviates: Homo sapiens, qPCR panel, read-out: HTT CJ (decrease in CJ mRNA levels, IC50).
Where [3] appears, read: Homo sapiens, RT-qPCR, A673 or K562 cells, 24 hours treatment.

Usually AC50 stands for the concentration giving half of the maximal activity seen. For orientation: IC50 means the midpoint of a concentration-inhibition curve. As for `Cc1c(O)c(-c2cc(Cl)c3cc(N4C[C@@H](C)N[C@@H](C)C4)cnc3n2)cc2cn(C)nc12` [Compound 207, 5-{4-chloro-6-[(3R,5S)-3,5-dimethylpiperazin-1-yl]-1,8-naphthyridin-2-yl}-2,7-dimethylindazol-6-ol], the AC50 in the experiment on HTT mRNA (RT-qPCR, A673 or K562 cells, 24 hours treatment) lay within 100 to 1000 nM. Further, the IC50 is < 100 nM in the experiment with HTT mRNA (RT-qPCR, A673 or K562 cells, 24 hours treatment, read-out: HTT CJ (IC50, decrease in CJ mRNA)); < 100 nM in the experiment with HTT mRNA (qPCR panel, read-out: HTT CJ (decrease in CJ mRNA levels, IC50)); 100 to 1000 nM in the experiment on Target C; 100 to 1000 nM in the experiment on Target C mRNA.

Consider `C[C@@H]1CN(c2cnc3nc(-c4cc5cn(C)nc5cc4O)cc(Cl)c3c2)C[C@H](C)N1` [Compound 208], for which the IC50 in the experiment on HTT mRNA (setting [1]), with HTT mRNA (setting [2]), in the experiment on Target C and in the experiment on Target C mRNA (Homo sapiens) was 1000 to 10000 nM each time. Also, the AC50 in the experiment on HTT mRNA (setting [3]) was in the range of 1000 to 10000 nM.

In the case of `Cn1cc2cc(-c3cc(Cl)c4cc(N5CCNC(C6CC6)C5)cnc4n3)cc(F)c2n1` (centres unmarked) [Compound 209, 4-chloro-6-(3-cyclopropylpiperazin-1-yl)-2-(7-fluoro-2-methylindazol-5-yl)-1,8-naphthyridine], the IC50 with HTT mRNA (setting [1]), in the experiment on HTT mRNA (setting [2]), with Target C and with Target C mRNA (Homo sapiens) was 1000 to 10000 nM each time. The AC50 in the experiment on HTT mRNA (setting [3]) was in the range of 1000 to 10000 nM.

Regarding `Cc1cn2nc(-c3ccc4cc(NC5CCNCC5)cnc4n3)cc(C)c2n1` [Compound 210, 7-{2,8-dimethylimidazo[1,2-b]pyridazin-6-yl}-N-(piperidin-4-yl)-1,8-naphthyridin-3-amine; trifluoroacetic acid], the IC50 in the experiment on HTT mRNA (setting [1]) is 1000 to 10000 nM; in the experiment on HTT mRNA (setting [2]), 1000 to 10000 nM; in the experiment with Target C, 1000 to 10000 nM; in the experiment with Target C mRNA (Homo sapiens) it was > 10000 nM. In addition, the AC50 in the experiment with HTT mRNA (setting [3]) is 1000 to 10000 nM.

As to `CN[C@@H]1CCN(c2cnc3nc(-c4cc5cn(C)nc5c(C)c4O)nc(OC)c3c2)C1` [Compound 211, 5-{4-methoxy-6-[(3R)-3-(methylamino)pyrrolidin-1-yl]pyrido[2,3-d]pyrimidin-2-yl}-2,7-dimethylindazol-6-ol], the IC50 in the experiment on HTT mRNA (setting [1]) was < 100 nM; in the experiment with HTT mRNA (setting [2]), < 100 nM; in the experiment on Target C, < 100 nM; in the experiment on Target C mRNA (Homo sapiens), 100 to 1000 nM. Also, in the experiment on HTT mRNA (setting [3]), the AC50 was < 100 nM.

Turning to `CN[C@H]1CCN(c2cnc3nc(-c4cc5cn(C)nc5c(C)c4O)nc(OC)c3c2)C1` [Compound 212, 5-{4-methoxy-6-[(3S)-3-(methylamino)pyrrolidin-1-yl]pyrido[2,3-d]pyrimidin-2-yl}-2,7-dimethylindazol-6-ol], the IC50 in the experiment with HTT mRNA (setting [1]) was < 100 nM; in the experiment with HTT mRNA (setting [2]), < 100 nM; with Target C it was 100 to 1000 nM; in the experiment on Target C mRNA (Homo sapiens), 1000 to 10000 nM. In addition, the AC50 in the experiment on HTT mRNA (setting [3]) was 100 to 1000 nM.

Take `CNC1CCN(c2cnc3nc(-c4cc5cn(C)nc5cc4O)cc(Cl)c3c2)C1` (centres unmarked) [Compound 213, 5-{4-chloro-6-[3-(methylamino)370pyrrolidine-1-yl]-1,8-naphthyridin-2-yl}-2-methylindazol-6-ol]: the IC50 with HTT mRNA (setting [1]) was 100 to 1000 nM; in the experiment on HTT mRNA (setting [2]) it was 100 to 1000 nM; with Target C it was 100 to 1000 nM; in the experiment with Target C mRNA (Homo sapiens), 1000 to 10000 nM. Besides, the AC50 with HTT mRNA (setting [3]) fell in the range of 100 to 1000 nM.

For `Cc1c(O)c(-c2ncc3cc(N4C[C@@H](C)N[C@@H](C)C4)cnc3n2)cc2cn(C)nc12` [Compound 214], the IC50 lay within 100 to 1000 nM in the experiment with HTT mRNA (setting [1]), 100 to 1000 nM with HTT mRNA (setting [2]), 1000 to 10000 nM in the experiment on Target C and 1000 to 10000 nM in the experiment on Target C mRNA (Homo sapiens). The half-maximal activity concentration (AC50) with HTT mRNA (setting [3]) fell in the range of 1000 to 10000 nM.

Consider `C[C@@H]1CN(c2cnc3nc(-c4cc(F)c5nn(C)cc5c4)cc(Cl)c3c2)C[C@H](C)N1` [Compound 215], for which the IC50 in the experiment on HTT mRNA (setting [1]), with HTT mRNA (setting [2]), in the experiment on Target C and with Target C mRNA (Homo sapiens) was 1000 to 10000 nM throughout. The AC50 in the experiment on HTT mRNA (setting [3]) was 1000 to 10000 nM.

Consider `Cn1cc2cc(-c3cc(Cl)c4cc(N5CCN6CCCC6C5)cnc4n3)cc(F)c2n1` (centres unmarked) [Compound 216, 4-chloro-2-(7-fluoro-2-methylindazol-5-yl)-6-{hexahydro-1H-pyrrolo[1,2-a]pyrazin-2-yl}-1,8-naphthyridine trifluoroacetic acid], for which the IC50 with HTT mRNA (setting [1]) is 1000 to 10000 nM; in the experiment on HTT mRNA (setting [2]) it was 1000 to 10000 nM; with Target C it was 1000 to 10000 nM; in the experiment with Target C mRNA (Homo sapiens), > 10000 nM. Further, the AC50 in the experiment with HTT mRNA (setting [3]) lay within 1000 to 10000 nM.

For the origin of these results see patent publication US20250326748A1, “COMPOUNDS AND METHODS FOR MODULATING SPLICING” (REMIX THERAPEUTICS INC., priority 2022, published 2025).
